Like-named read-outs stand apart in the source and are kept apart here.
Assays:
HarmOBP7-wt [1] = biological target: T1, HarmOBP7-wt (Helicoverpa armigera, UniProt F5ANI5); test: Competitive binding assay, displacement of 1-NPN from HarmOBP7-wt; settings: for Affinity to HarmOBP7 (in words): competitive binding with 1-NPN
Experimental: (§1) Emission fluorescence spectra were recorded on a Hitachi F-4500 at 25°C in a right angle configuration, with a 1 cm light path quartz cuvette and 5 nm slits for both excitation and emission. The protein was dissolved in 50 mM Tris-HCl buffer, pH 7.4, while ligands were added as 1 mM methanol solutions.
The probe was excited at 337 nm and emission spectra were recorded between 380 and 450 nm. […] Dissociation constant for 1-NPN and the stoichiometry of binding was obtained by processing the data with Prism software.

HarmOBP7-m2 = HarmOBP7-m2 (Helicoverpa armigera, UniProt F5ANI5); test: Fluorescence binding of 1-NPN to HarmOBP7-m2 (K123M); settings: read-out: Dissociation constant of 1-NPN; HarmOBP7-m2, 2 µM protein in Tris, pH 7.4, three replicates, SD 0.22
Chain of HarmOBP7-m2 (F5ANI5 entry or part of it): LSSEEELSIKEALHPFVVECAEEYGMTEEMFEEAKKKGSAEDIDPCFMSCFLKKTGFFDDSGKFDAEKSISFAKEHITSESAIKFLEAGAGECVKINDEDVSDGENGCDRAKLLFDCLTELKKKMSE
Experimental: as §1
(§2) The probe was excited at 337 nm and emission spectra were recorded between 380 and 450 nm. […] Dissociation constant for 1-NPN and the stoichiometry of binding was obtained by processing the data with Prism software. Dissociation constants of the competitors were calculated from the corresponding [IC]50 values (concentrations of ligands halving the initial fluorescence value of 1-NPN), using the equation: KD = [IC50]/1+[1-NPN]/K1-NPN, [1-NPN] being the free concentration of 1-NPN and K1-NPN being the dissociation constant of the complex protein/1-NPN.

HarmOBP7-m1 = biological target: T2, HarmOBP7-m1 (Helicoverpa armigera, UniProt F5ANI5); test: Fluorescence binding of 1-NPN to HarmOBP7-m1 (lacks the last 6 residues)
T2 sequence (F5ANI5 22-142): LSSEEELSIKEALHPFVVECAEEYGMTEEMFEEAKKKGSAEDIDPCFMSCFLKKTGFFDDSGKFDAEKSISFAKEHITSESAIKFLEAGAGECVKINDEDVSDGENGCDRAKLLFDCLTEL
Experimental: (§3) Emission fluorescence spectra were recorded on a Hitachi F-4500 at 25°C in a right angle configuration, with a 1 cm light path quartz cuvette and 5 nm slits for both excitation and emission. […]
as §2

HarmOBP7-wt [2] = biological target: T1, HarmOBP7-wt; test: Fluorescence binding of 1-NPN to HarmOBP7-wt
Experimental: as §3, §2

[3] = HarmOBP7-wt, 2 µM protein and 2 µM 1-NPN, pH 7.4, values larger than 16 extrapolated from the competitive binding curves, read-out: [IC]50
[4] = HarmOBP7-wt, 2 µM protein and 2 µM 1-NPN, pH 7.4, concentration of ligand halving initial 1-NPN fluorescence, read-out: [IC]50
[5] = HarmOBP7-wt, calculated from [IC]50: KD = [IC50]/1+[1-NPN]/K1-NPN, read-out: KD (calculated dissociation constant)

T1 sequence (F5ANI5 entry or part of it): as the sequence (F5ANI5 entry or part of it) above

With `CCCCCCCCCCO` [1-Decanol] the IC50 (HarmOBP7-wt [1]) was > 16 µM.
With `CCCCCCCCCCCCO` [1-Dodecanol] the IC50 (HarmOBP7-wt [1]; [3]) was > 25 µM.
In the case of `CCCCCCCCCCCCCCCCO` [1-Hexadecanol], the IC50 (HarmOBP7-wt [1]; [3]) is reported as > 16 µM.
With `c1ccc(Nc2cccc3ccccc23)cc1` [1-NPN, N-phenyl-1-naphthylamine] the Kd (HarmOBP7-m2) was 3.2 µM, the Kd (HarmOBP7-m1; HarmOBP7-m1, 2 µM protein in Tris, pH 7.4, three replicates, SD 1.1, read-out: Dissociation constant of 1-NPN) was 6.8 µM and the “Effect of pH on affinity of 1-NPN (in words)” value (HarmOBP7-m1; HarmOBP7-m1, pH range 3.5 to 9.5, basic conditions, no significant loss of binding down to pH 3.5) was “marked increase in affinity”. The Kd (HarmOBP7-wt [2]; 2 µM protein in Tris, pH 7.4, three replicates, SD 0.63, read-out: Dissociation constant of 1-NPN) was 5.5 µM and the “Effect of pH on affinity of 1-NPN (in words)” value (HarmOBP7-wt [2]; pH range 3.5 to 9.5, basic conditions, no significant loss of binding down to pH 3.5) was “marked increase in affinity”.
In the case of `CCCCCCCCCCCCCCCCCCO` [1-Octadecanol], the IC50 (HarmOBP7-wt [1]; [3]) is reported as > 25 µM.
In the case of `CCCCCCCCCCCCCCCO` [1-Pentadecanol], the IC50 (HarmOBP7-wt [1]; [3]) is reported as > 25 µM.
`CCCCCCCCCCCCCCO` [1-Tetradecanol] showed an IC50 (HarmOBP7-wt [1]) of 6.7 µM and a Kd (HarmOBP7-wt [1]) of 5.1 µM.
With `CCCCCCCCCCCCCO` [1-Tridecanol] the IC50 (HarmOBP7-wt [1]; [4]) was 4.6 µM and the Kd (HarmOBP7-wt [1]; [5]) was 3.5 µM.
`CCCCCCCCCCC(C)=O` [2-Dodecanone] was tested, and the IC50 (HarmOBP7-wt [1]; [3]) was > 16 µM.
`COc1ccccc1C=CC=O` [2-Methoxycinnamaldehyde] was tested, and the IC50 (HarmOBP7-wt [1]; [4]) was 14.7 µM and the Kd (HarmOBP7-wt [1]; [5]) was 11.1 µM.
With `Cc1ccc2ccccc2c1` [2-Methylnaphthalene] the IC50 (HarmOBP7-wt [1]) was > 16 µM.
Work on `CCCCCCCCCCCC(C)=O` [2-Tridecanone] yielded an IC50 (HarmOBP7-wt [1]; [4]) of 9.6 µM and a Kd (HarmOBP7-wt [1]; [5]) of 7.3 µM.
Compound `CC(C)CCCC(C)CCOC(=O)c1ccccc1` (stereo not shown) [3,7-Dimethyloctylbenzoate] has an IC50 (HarmOBP7-wt [1]; [4]) of 3.5 µM and a Kd (HarmOBP7-wt [1]; [5]) of 2.7 µM.
In the case of `COc1ccc(-c2ccccc2)cc1` [4-Phenylanisole], the IC50 (HarmOBP7-wt [1]; [3]) is reported as > 16 µM.
Work on `O=Cc1ccccc1` [Benzaldehyde] yielded an IC50 (HarmOBP7-wt [1]) of 10.8 µM and a Kd (HarmOBP7-wt [1]) of 8.2 µM.
Work on `CCCCOC(=O)/C=C/c1ccccc1` [Butyl cinnamate] yielded an IC50 (HarmOBP7-wt [1]; [4]) of 9.6 µM and a Kd (HarmOBP7-wt [1]; [5]) of 7.3 µM.
In the case of `CCCCOC(=O)c1ccc(C(C)(C)C)cc1` [Butyl p-tert-butyl benzoate], the IC50 (HarmOBP7-wt [1]; [4]) is reported as 6.9 µM and the Kd (HarmOBP7-wt [1]; [5]) is reported as 5.2 µM.
In the case of `O=C(O)/C=C/c1ccccc1` [Cinnamic acid], the IC50 (HarmOBP7-wt [1]) is reported as > 25 µM.
`COc1cc(/C=C/C=O)ccc1O` [Coniferyl aldehyde] was tested, and the IC50 (HarmOBP7-wt [1]) was 12.7 µM and the Kd (HarmOBP7-wt [1]) was 9.6 µM.
In the case of `CCCCCCCCCCCC=O` [Dodecanal], the IC50 (HarmOBP7-wt [1]; [4]) is reported as 10.3 µM and the Kd (HarmOBP7-wt [1]; [5]) is reported as 7.8 µM.
With `CCCCCCCCCCCCOC(C)=O` [Dodecyl acetate] the IC50 (HarmOBP7-wt [1]; [4]) was 5.2 µM and the Kd (HarmOBP7-wt [1]; [5]) was 3.9 µM.
For `CCCCCCCCCC(=O)OCC` [Ethyl decanoate], the IC50 (HarmOBP7-wt [1]; [3]) was > 16 µM.
`CCCCCCCCCCCC(=O)OCC` [Ethyl laurate] was tested, and the IC50 (HarmOBP7-wt [1]; [4]) was 4.3 µM and the Kd (HarmOBP7-wt [1]; [5]) was 3.3 µM.
Work on `CCCCCCCCCCCCCC(=O)OCC` [Ethyl myristate] yielded an IC50 (HarmOBP7-wt [1]; [4]) of 4.7 µM and a Kd (HarmOBP7-wt [1]; [5]) of 3.5 µM.
For `CCCCCCCCCCCCCCCC(=O)OCC` [Ethyl palmitate], the IC50 (HarmOBP7-wt [1]; [4]) was 12.6 µM and the Kd (HarmOBP7-wt [1]; [5]) was 12.6 µM.
Work on `CCCCCCCCCCCCCCCCC=O` [Heptadecanal] yielded an IC50 (HarmOBP7-wt [1]; [4]) of 9.1 µM and a Kd (HarmOBP7-wt [1]; [5]) of 6.9 µM.
`COc1cc(CC(=O)O)ccc1O` [Homovanillic acid] was tested, and the IC50 (HarmOBP7-wt [1]) was > 16 µM.
In the case of `COC(=O)C=Cc1ccccc1` [Methyl cinnamate], the IC50 (HarmOBP7-wt [1]; [3]) is reported as > 16 µM.
Work on `CCCCCCCCCCCCCC=O` [Tetradecanal] yielded an IC50 (HarmOBP7-wt [1]; [4]) of 3.2 µM and a Kd (HarmOBP7-wt [1]; [5]) of 2.4 µM.
`CCCCCCCCCCCCC=O` [Tridecanal] was tested, and the IC50 (HarmOBP7-wt [1]; [4]) was 4.9 µM and the Kd (HarmOBP7-wt [1]; [5]) was 3.7 µM.
`CCCCCCCCCCC=O` [Undecanal] was tested, and the IC50 (HarmOBP7-wt [1]; [4]) was 10.7 µM and the Kd (HarmOBP7-wt [1]; [5]) was 8.1 µM.
For `CCCCCC/C=C\CCCCCCCC=O` [Z-9-hexadecenal], the “Affinity to HarmOBP7 (in words)” value (HarmOBP7-wt [1]; HarmOBP7-wt) was “good affinity”.
`CCCC/C=C\CCCCCCCCCC=O` [Z-11-hexadecenal] was tested, and the “Affinity to HarmOBP7 (in words)” value (HarmOBP7-wt [1]; HarmOBP7-wt) was “good affinity”.
Work on `CC(C)c1ccc(C=O)cc1` [p-Isopropylbenzaldehyde] yielded an IC50 (HarmOBP7-wt [1]; [4]) of 10.5 µM and a Kd (HarmOBP7-wt [1]; [5]) of 7.9 µM.
Work on `CC(C)(C)c1ccc(C(=O)c2ccccc2)cc1` [p-tert-Butylbenzophenone] yielded an IC50 (HarmOBP7-wt [1]; [4]) of 4.5 µM and a Kd (HarmOBP7-wt [1]; [5]) of 3.4 µM.
For `CCCCC/C(C=O)=C/c1ccccc1` [α-Amylcinnamaldehyde], the IC50 (HarmOBP7-wt [1]; [4]) was 5.5 µM and the Kd (HarmOBP7-wt [1]; [5]) was 4.2 µM.

Reference: PMC3555816, “A Lysine at the C-Terminus of an Odorant-Binding Protein is Involved in Binding Aldehyde Pheromone Components in Two Helicoverpa Species” (PLoS ONE, 2013)
